Inhibition data for 19 molecules are collected here from patent US9062066B2, “Anti-inflammatory compound having inhibitory activity against multiple tyrosine kinases and pharmaceutical composition containing same” (KOREA INSTITUTE OF SCIENCE AND TECHNOLOGY, priority 2010, dated 2015).

In experiment [1] the target is c-Src tyrosine kinase (Homo sapiens (Human), UniProt P12931). Description: in vitro c-Src tyrosine kinase inhibition (32P-ATP, poly(D4Y)n substrate). It is filed as biochemical. Conditions: 1 uM compound; read-out: % inhibition against c-Src.
Sequence of c-Src tyrosine kinase (P12931 whole entry, looked up): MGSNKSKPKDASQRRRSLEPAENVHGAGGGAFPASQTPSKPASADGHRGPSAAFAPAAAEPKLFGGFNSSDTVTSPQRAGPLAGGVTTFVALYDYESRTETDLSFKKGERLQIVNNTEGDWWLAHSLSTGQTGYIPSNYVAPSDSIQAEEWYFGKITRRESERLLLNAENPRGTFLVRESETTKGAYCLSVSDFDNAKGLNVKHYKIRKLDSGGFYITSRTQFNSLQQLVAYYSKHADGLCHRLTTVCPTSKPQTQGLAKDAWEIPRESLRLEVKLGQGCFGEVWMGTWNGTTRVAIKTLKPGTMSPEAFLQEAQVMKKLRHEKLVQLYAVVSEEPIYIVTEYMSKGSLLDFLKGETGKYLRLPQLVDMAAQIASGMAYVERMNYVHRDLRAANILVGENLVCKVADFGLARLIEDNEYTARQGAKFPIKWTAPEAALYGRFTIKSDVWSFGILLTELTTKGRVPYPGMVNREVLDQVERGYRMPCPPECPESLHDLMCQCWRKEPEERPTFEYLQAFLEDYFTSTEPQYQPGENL
The target of experiment [2] is Hck tyrosine kinase (Homo sapiens (Human), UniProt P08631). Description: in vitro Hck tyrosine kinase inhibition. It is filed as biochemical. Conditions: 1 uM compound; read-out: % inhibition against Hck.
Sequence of Hck tyrosine kinase (P08631 whole entry): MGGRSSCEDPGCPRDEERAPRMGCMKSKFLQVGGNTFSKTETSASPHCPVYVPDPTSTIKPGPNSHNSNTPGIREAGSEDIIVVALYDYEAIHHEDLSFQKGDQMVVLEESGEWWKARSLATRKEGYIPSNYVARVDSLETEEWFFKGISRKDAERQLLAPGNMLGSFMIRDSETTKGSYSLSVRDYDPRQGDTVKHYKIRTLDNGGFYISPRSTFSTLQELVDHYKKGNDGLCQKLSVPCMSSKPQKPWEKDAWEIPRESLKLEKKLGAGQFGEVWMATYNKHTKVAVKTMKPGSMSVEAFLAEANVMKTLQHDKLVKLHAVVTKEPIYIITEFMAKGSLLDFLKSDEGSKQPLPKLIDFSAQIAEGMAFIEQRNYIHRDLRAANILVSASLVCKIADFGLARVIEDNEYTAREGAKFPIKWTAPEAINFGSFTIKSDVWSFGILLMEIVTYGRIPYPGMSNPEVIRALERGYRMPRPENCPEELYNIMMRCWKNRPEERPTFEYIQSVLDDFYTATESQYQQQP
Experiment [3] addresses Fgr tyrosine kinase (Homo sapiens (Human), UniProt P09769). Description: in vitro Fgr tyrosine kinase inhibition. It is filed as biochemical. Conditions: 1 uM compound; read-out: % inhibition against Fgr.
Experiment [4] deals with Lyn tyrosine kinase (Homo sapiens (Human), UniProt P07948). The experiment in a line: in vitro Lyn tyrosine kinase inhibition. The experiment is classed as biochemical. Conditions: 1 uM compound; read-out: % inhibition against Lyn.
Sequence of Lyn tyrosine kinase (P07948 whole entry, the tested form may be a part): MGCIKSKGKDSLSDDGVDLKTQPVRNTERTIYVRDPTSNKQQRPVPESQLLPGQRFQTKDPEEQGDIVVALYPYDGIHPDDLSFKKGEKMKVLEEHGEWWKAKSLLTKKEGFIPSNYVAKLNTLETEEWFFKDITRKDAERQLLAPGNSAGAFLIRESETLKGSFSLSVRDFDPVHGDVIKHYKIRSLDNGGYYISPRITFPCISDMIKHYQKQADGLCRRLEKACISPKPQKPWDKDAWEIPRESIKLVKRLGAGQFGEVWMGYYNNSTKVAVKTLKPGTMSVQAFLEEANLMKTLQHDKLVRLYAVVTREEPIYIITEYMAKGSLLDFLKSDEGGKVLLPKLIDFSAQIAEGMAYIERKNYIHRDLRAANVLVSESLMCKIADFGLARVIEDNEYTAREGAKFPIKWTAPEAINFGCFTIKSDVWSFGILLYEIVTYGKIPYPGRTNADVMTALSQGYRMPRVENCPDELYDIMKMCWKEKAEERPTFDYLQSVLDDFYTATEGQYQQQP
For experiment [5], the target named is DDR1 tyrosine kinase (Homo sapiens (Human), UniProt Q08345). The experiment in a line: in vitro DDR1 tyrosine kinase inhibition (GST-fused kinase domain). It is filed as biochemical. Conditions: 1 uM compound; read-out: % inhibition against DDR1.
Sequence of DDR1 tyrosine kinase (Q08345 610-905): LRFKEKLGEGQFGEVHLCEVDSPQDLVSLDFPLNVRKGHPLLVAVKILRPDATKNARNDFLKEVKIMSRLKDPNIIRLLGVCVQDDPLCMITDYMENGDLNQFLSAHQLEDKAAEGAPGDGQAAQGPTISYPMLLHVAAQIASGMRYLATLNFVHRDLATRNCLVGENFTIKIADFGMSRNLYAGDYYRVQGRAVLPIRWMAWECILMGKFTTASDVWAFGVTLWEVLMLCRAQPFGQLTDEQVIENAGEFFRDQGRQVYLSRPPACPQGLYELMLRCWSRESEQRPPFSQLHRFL
In experiment [6] the target is DDR2 tyrosine kinase (Homo sapiens (Human), UniProt Q16832). Description: in vitro DDR2 tyrosine kinase inhibition (GST-fused kinase domain). Conditions: 1 uM compound; read-out: % inhibition against DDR2. It is filed as biochemical.
Sequence of DDR2 tyrosine kinase (Q16832 563-849): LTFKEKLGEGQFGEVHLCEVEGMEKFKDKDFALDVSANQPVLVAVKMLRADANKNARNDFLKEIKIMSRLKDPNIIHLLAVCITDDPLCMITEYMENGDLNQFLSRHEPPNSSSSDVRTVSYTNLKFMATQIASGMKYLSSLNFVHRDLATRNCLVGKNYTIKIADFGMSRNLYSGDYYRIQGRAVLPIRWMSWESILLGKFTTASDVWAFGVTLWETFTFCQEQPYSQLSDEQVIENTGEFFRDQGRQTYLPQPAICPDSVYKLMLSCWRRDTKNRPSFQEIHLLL
In experiment [7] the test system is TNF-α synthesis in J744A.1 macrophages. The experiment in a line: inhibition of TNF-α synthesis in LPS-activated macrophages (ELISA). Conditions: Macrophage; 10 μM compound, 100 ng/ml LPS, 6 hours; read-out: Inhibition (%) of TNF-α synthesis. It is filed as cell-based.
Experiment [8] has as its system NO synthesis in J744A.1 macrophage. Description: inhibition of nitric oxide (NO) synthesis in LPS-activated macrophages (Griess reagent). It is filed as cell-based. Conditions: read-out: Inhibition (%) of NO synthesis. Background: Nitrite, measured by Griess reagent, commonly stands in for NO production.

Like-named read-outs stand apart in the source and are kept apart here.

What is called inhibition is the share of the control response that was lost under treatment.

Sequence of Fgr tyrosine kinase (P09769 whole entry): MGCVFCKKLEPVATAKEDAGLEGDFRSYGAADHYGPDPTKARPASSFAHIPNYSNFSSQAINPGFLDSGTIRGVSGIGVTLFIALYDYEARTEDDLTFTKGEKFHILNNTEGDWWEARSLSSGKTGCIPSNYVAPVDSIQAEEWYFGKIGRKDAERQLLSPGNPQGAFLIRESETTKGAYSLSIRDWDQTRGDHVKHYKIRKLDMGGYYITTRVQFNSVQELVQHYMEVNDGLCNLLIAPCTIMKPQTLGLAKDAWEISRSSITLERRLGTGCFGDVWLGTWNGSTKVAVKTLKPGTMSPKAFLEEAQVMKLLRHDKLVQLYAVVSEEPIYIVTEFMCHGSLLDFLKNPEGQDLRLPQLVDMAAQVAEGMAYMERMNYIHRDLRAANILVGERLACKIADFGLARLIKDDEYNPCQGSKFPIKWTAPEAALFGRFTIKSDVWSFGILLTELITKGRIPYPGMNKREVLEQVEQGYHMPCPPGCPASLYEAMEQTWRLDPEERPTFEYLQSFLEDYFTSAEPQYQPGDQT

As for `Oc1cccc(Nc2ncnc3cc(-c4ccccc4)sc23)c1` [LCB 03-0008, 3-(6-phenylthieno[3,2-d]pyrimidin-4-ylamino)phenol], the inhibition at 1 µM in experiment [1], in experiment [2], in experiment [3], in experiment [4], in experiment [5] and in experiment [6] was more than 70% each time. In addition, the inhibition at 10 µM in experiment [7] was found to be 67%; in experiment [8] (10 μM compound, LPS, 24 hours), 87%.

Turning to `Oc1cccc(Nc2ncnc3cc(Br)sc23)c1` [LCB 03-0015, 3-(6-Bromo-thieno[3,2-d]pyrimidin-4-ylamino)-phenol], the inhibition at 1 µM in experiment [1] was more than 60%; in experiment [2] it was more than 60%; in experiment [3], more than 60%; in experiment [4], more than 60%; in experiment [5], more than 20%; in experiment [6], more than 20%. Further, in experiment [7], the inhibition at 10 µM is 71%.

Consider `COc1ccc(-c2cc3ncnc(Nc4cccc(O)c4)c3s2)cc1` [LCB 03-0017, 3-[6-(4-Methoxy-phenyl)-thieno[3,2-d]pyrimidin-4-ylamino]-phenol], for which the inhibition at 1 µM in experiment [1] was more than 60%; in experiment [2], more than 60%; in experiment [3], more than 60%; in experiment [4] it was more than 60%; in experiment [5], more than 70%; in experiment [6], more than 70%. Moreover, in experiment [8] (10 μM compound, LPS, 24 hours), the inhibition at 10 µM worked out at 82%.

Take `Oc1cccc(Nc2ncnc3cc(-c4ccc(CCN5CCCC5)cc4)sc23)c1` [LCB 03-0043]: the inhibition at 1 µM in experiment [1] is more than 30%; in experiment [2], more than 30%; in experiment [3], more than 30%; in experiment [4] it was more than 30%; in experiment [5], more than 80%; in experiment [6] it was more than 80%. In experiment [8] (10 μM compound, LPS, 24 hours), the inhibition at 10 µM amounted to 66%.

`CN1CCN(C(=O)Cc2ccc(-c3cc4ncnc(Nc5cccc(O)c5)c4s3)cc2)CC1` [LCB 03-0047, 2-(4-(4-(3-hydroxyphenylamino)thieno[3,2-d]pyrimidin-6-yl)phenyl)-1-(4-methylpiperazin-1-yl)ethanone]: the inhibition at 1 µM in experiment [1] is more than 30%; in experiment [2] it was more than 30%; in experiment [3], more than 30%; in experiment [4] it was more than 20%; in experiment [5], more than 70%; in experiment [6], more than 70%. Moreover, the inhibition at 10 µM in experiment [8] (24 h) is 56%.

With `COC(=O)C1CCCN1Cc1ccc(-c2cc3ncnc(Nc4cccc(O)c4)c3s2)cc1` (stereo not drawn) [LCB 03-0056, methyl 1-(4-(4-(3-hydroxyphenylamino)thieno[3,2-d]pyrimidin-6-yl)benzyl)pyrrolidine-2-carboxylate], the inhibition at 1 µM was more than 50% in experiment [1]; more than 50% in experiment [2]; more than 50% in experiment [3]; more than 50% in experiment [4]; more than 80% in experiment [5]; more than 80% in experiment [6].

On to `CCOCc1ccc(-c2cc3ncnc(Nc4cccc(O)c4)c3s2)cc1` [LCB 03-0073, 3-(6-(4-(ethoxymethyl)phenyl)thieno[3,2-d]pyrimidin-4-ylamino)phenol], for which the inhibition at 1 µM in experiment [1] is more than 30%; in experiment [2], more than 30%; in experiment [3], more than 30%; in experiment [4], more than 30%; in experiment [5], more than 80%; in experiment [6], more than 80%. In addition, the inhibition at 10 µM in experiment [8] (10 μM compound, LPS, 24 hours) stood at 85%.

As to `CC(CO)NC(=O)c1ccc(-c2cc3ncnc(Nc4cccc(O)c4)c3s2)cc1` (stereo not drawn) [LCB 03-0074, 4-(4-(3-hydroxyphenylamino)thieno[3,2-d]pyrimidin-6-yl)-N-(1-hydroxypropan-2-yl)benzamide], the inhibition at 1 µM is more than 30% in experiment [1]; more than 30% in experiment [2]; more than 30% in experiment [3]; more than 30% in experiment [4]; more than 80% in experiment [5]; more than 80% in experiment [6].

On to `CC(NC(=O)c1ccc(-c2cc3ncnc(Nc4cccc(O)c4)c3s2)cc1)C(=O)O` (stereo not drawn) [LCB 03-0075, 2-(4-(4-(3-hydroxyphenylamino)thieno[3,2-d]pyrimidin-6-yl)benzamido)propanoic acid], for which the inhibition at 1 µM in experiment [1] was more than 30%; in experiment [2], more than 30%; in experiment [3] it was more than 30%; in experiment [4] it was more than 30%; in experiment [5], more than 80%; in experiment [6] it was more than 80%.

With `Oc1cccc(Nc2ncnc3cc(-c4ccc(N5CCOCC5)cc4)sc23)c1` [LCB 03-0082, 3-(6-(4-morpholinophenyl)thieno[3,2-d]pyrimidin-4-ylamino)phenol], the inhibition at 1 µM in experiment [1], in experiment [2], in experiment [3] and in experiment [4] was more than 70% throughout. In addition, the inhibition at 10 µM was determined as 77% in experiment [7] and 90% in experiment [8] (10 μM compound, LPS, 24 hours).

In the case of `CN1CCN(c2nc3ncnc(Nc4cccc(O)c4)c3s2)CC1` [LCB 03-0100, 3-(2-(4-methylpiperazin-1-yl)thiazolo[4,5-d]pyrimidin-7-ylamino)phenol], the inhibition at 1 µM is more than 30% in experiment [1]; more than 30% in experiment [2]; more than 30% in experiment [3]; more than 30% in experiment [4]; more than 70% in experiment [5]; more than 70% in experiment [6].

As for `CN1CCN(Cc2csc(-c3cc4ncnc(Nc5cccc(O)c5)c4s3)c2)CC1` [LCB 03-0102, 3-(6-(4-((4-methylpiperazin-1-yl)methyl)thiophene-2-yl)thieno[3,2-d]pyrimidin-4-ylamino)phenol], the inhibition at 1 µM in experiment [1] is more than 60%; in experiment [2], more than 60%; in experiment [3] it was more than 60%; in experiment [4], more than 60%; in experiment [5], more than 70%; in experiment [6], more than 70%. The inhibition at 10 µM in experiment [8] (10 μM compound, LPS, 24 hours) stood at 97%.

On to `Oc1cccc(Nc2ncnc3cc(-c4cc(CN5CCCCC5)cs4)sc23)c1` [LCB 03-0103, 3-(6-(4-(piperidin-1-ylmethyl)thiophene-2-yl)thieno[3,2-d]pyrimidin-4-ylamino)phenol], for which the inhibition at 1 µM was more than 50% in experiment [1]; more than 50% in experiment [2]; more than 50% in experiment [3]; more than 50% in experiment [4]; more than 70% in experiment [5]; more than 70% in experiment [6].

In the case of `Oc1cccc(Nc2ncnc3cc(-c4cc(CN5CCOCC5)cs4)sc23)c1` [LCB 03-0104, 3-(6-(4-(morpholinomethyl)thiophene-2-yl)thieno[3,2-d]pyrimidin-4-ylamino)phenol], the inhibition at 1 µM in experiment [1] is more than 50%; in experiment [2], more than 50%; in experiment [3], more than 50%; in experiment [4] it was more than 50%; in experiment [5], more than 80%; in experiment [6] it was more than 80%.

For the molecule `Oc1cccc(Nc2ncnc3cc(-c4cc(CN5CCNCC5)cs4)sc23)c1` [LCB 03-0105, 3-(6-(4-(piperazin-1-ylmethyl)thiophene-2-yl)thieno[3,2-d]pyrimidin-4-ylamino)phenol], the inhibition at 1 µM in experiment [1] is more than 50%; in experiment [2], more than 50%; in experiment [3], more than 50%; in experiment [4], more than 50%; in experiment [5], more than 70%; in experiment [6] it was more than 70%.

As to `CCNCc1csc(-c2cc3ncnc(Nc4cccc(O)c4)c3s2)c1` [LCB 03-0106, 3-(6-(4-((ethylamino)methyl)thiophene-2-yl)thieno[3,2-d]pyrimidin-4-ylamino)phenol], the inhibition at 1 µM in experiment [1], in experiment [2], in experiment [3], in experiment [4], in experiment [5] and in experiment [6] was more than 70% throughout. In addition, the inhibition at 10 µM in experiment [7] worked out at 63%.

Turning to `Oc1cccc(Nc2ncnc3cc(-c4cc(CN5CCCC5)co4)sc23)c1` [LCB 03-0113, 3-(6-(4-(pyrrolidin-1-ylmethyl)furan-2-yl)thieno[3,2-d]pyrimidin-4-ylamino)phenol], the inhibition at 1 µM in experiment [1] is more than 50%; in experiment [2], more than 50%; in experiment [3] it was more than 50%; in experiment [4] it was more than 50%; in experiment [5], more than 70%; in experiment [6], more than 70%.

As for `CN1CCN(Cc2coc(-c3cc4ncnc(Nc5cccc(O)c5)c4s3)c2)CC1` [LCB 03-0114, 3-(6-(4-((4-methylpiperazin-1-yl)methyl)furan-2-yl)thieno[3,2-d]pyrimidin-4-ylamino)phenol], the inhibition at 1 µM in experiment [1] was more than 50%; in experiment [2], more than 50%; in experiment [3] it was more than 50%; in experiment [4], more than 50%; in experiment [5], more than 70%; in experiment [6], more than 70%.

In the case of `Oc1cccc(Nc2ncnc3cc(-c4cc(CN5CCCCC5)co4)sc23)c1` [LCB 03-0115, 3-(6-(4-(piperidin-1-ylmethyl)furan-2-yl)thieno[3,2-d]pyrimidin-4-ylamino)phenol], the inhibition at 1 µM is more than 50% in experiment [1]; more than 50% in experiment [2]; more than 50% in experiment [3]; more than 50% in experiment [4]; more than 70% in experiment [5]; more than 70% in experiment [6].
